According to ChEMBL document CHEMBL1129530, “Novel alpha-amino-3-hydroxy-5-methylisoxazole-4-propionate receptor antagonists: synthesis and structure-activity relationships of 6-(1H-imidazol-1-yl)-7-nitro-2,3(1H,4H)-pyrido[2,3-b]pyrazinedione and related compounds” (J Med Chem, 1996):

The compounds below were run against Glutamate receptor ionotropic, AMPA (Rattus norvegicus) (UniProt P19491+P19492+P19493+P19490) (assay: Inhibition [3H]AMPA binding to ionotropic glutamate receptor AMPA in rat whole brain membranes in the presence of […] KSCN). Conditions: not given.
Assay type: cell membranes
Cc1cnc2nc(O)c(O)nc2c1 showed an inhibition of 74%. Compound Oc1nc2ccncc2nc1O has an inhibition of 32%. Cc1ccc2nc(O)c(O)nc2n1 was tested, and the inhibition was 31%. Oc1nc2ccc(N3CCOCC3)nc2nc1O was tested, and the inhibition was 32%. COc1ccc2nc(O)c(O)nc2n1 showed an inhibition of 41%. Compound CSc1ccc2nc(O)c(O)nc2n1 has an inhibition of 55%. In the case of O=[N+]([O-])c1ccc2nc(O)c(O)nc2n1, the inhibition is reported as 66%. With Oc1nc2ccc(Cl)nc2nc1O the inhibition was 29%. With Oc1nc2cncnc2nc1O the inhibition was 62%. Oc1nc2cccnc2nc1O showed an inhibition of 22%. CS(=O)(=O)c1ccc2nc(O)c(O)nc2n1 was tested, and the inhibition was 56%. For Oc1nc2ccc(-n3ccnc3)nc2nc1O, the inhibition was 76%. Compound CNc1ccc2nc(O)c(O)nc2n1 has an inhibition of 30%. Compound Oc1ccc2nc(O)c(O)nc2n1 has an inhibition of 37%.

These compounds were tested against Glutamate receptor ionotropic, AMPA (Rattus norvegicus, UniProt P19490+P19491+P19492+P19493) (assay: In vitro inhibition of the specific binding of [3H]AMPA to Ionotropic glutamate receptor AMPA in rat whole brain membranes in the presence of […] KSCN). Conditions: not given.
Assay type: cell membranes
Compound O=[N+]([O-])c1cc2nc(O)c(O)nc2nc1N1CCOCC1 has a Ki of 920 nM. O=[N+]([O-])c1cc2nc(O)c(O)nc2nc1-n1ccnc1 gave a Ki of 140 nM. O=[N+]([O-])c1cc2nc(O)c(O)nc2nc1[N+](=O)[O-] gave a Ki of 860 nM. For COc1nc2[nH]c(=O)c(=O)[nH]c2cc1[N+](=O)[O-], the Ki was 700 nM. Work on O=[N+]([O-])c1cnc2nc(O)c(O)nc2c1 yielded a Ki of 1100 nM.

These compounds were tested against Glutamate receptor ionotropic, NMDA 1 (Rattus norvegicus) (UniProt P35439) (assay: (§1) In vitro inhibition of the specific binding of [3H]Gly to N-methyl-D-aspartate glutamate receptor 1 in rat whole brain membranes except cerebellum). Conditions: concentration not given here.
Assay type: cell membranes
Compound O=[N+]([O-])c1cc2nc(O)c(O)nc2nc1N1CCOCC1 has an inhibition of 14%. O=[N+]([O-])c1cc2nc(O)c(O)nc2nc1-n1ccnc1 gave an inhibition of 0%. O=c1[nH]c2cc(-n3ccnc3)c([N+](=O)[O-])cc2[nH]c1=O gave an inhibition of 16%.

What follows are compounds tested against Glutamate receptor ionotropic, NMDA 1 (Rattus norvegicus, UniProt P35439) (assay: as §1). Conditions: not given.
Assay type: cell membranes
O=[N+]([O-])c1cc2nc(O)c(O)nc2nc1[N+](=O)[O-] showed a Ki of 8000 nM. For COc1nc2[nH]c(=O)c(=O)[nH]c2cc1[N+](=O)[O-], the Ki was 370 nM.
